In patent US9499485B2, “Compounds that are S1P modulating agents and/or ATX modulating agents” (BIOGEN MA INC., priority 2012, dated 2016):
pIC50: −log10 of the molar value. Read-outs that look alike come from different tables or passages of the source.

Target: T1, Human ATX protein (Homo sapiens, UniProt Q13822)
T1 construct: made in house
Assay: ATX biochemical FRET assay with FS-3 substrate
Settings: FS-3 2 μM, ATX 1.0 μg/mL
Text: ATX (Autotaxin) is a 125 KDa glycoprotein with lysophospholipase D (LPLD) activity that generates the bioactive lipid lysophosphatidic acid (LPA) from lysophosphatidylcholine (LPC). The ATX biochemical assay utilizes a FRET (fluorescence resonance energy transfer) technology platform. The fluorescence signal of FRET substrate FS-3 is quenched due to intra-molecular FRET of a fluorophore to a non-fluorescing quencher (Ferguson, C. G., et al., Org. Lett. 2006 May 11; 8(10): 2023-2026, which is incorporated by reference in its entirety). ATX catalyzes the hydrolysis of the substrate which separates the dabsyl quencher from the fluorescein reporter, which becomes fluorescent. The reaction is monitored by a SpectraMax M5 (Molecular Devices, Sunnyvale, Calif.) with at excitation wavelength 485 nm and emission wavelength 535 nm.
2×ATX assay buffer: 100 mM Tris, 280 mM NaCl, 10 mM KCl, 2 mM CaCl2, 2 mM MgCl2, pH 7.4.
Human ATX protein: expressed and purified in house. Stored at −80° C.
Substrate FS-3 (Echelon, L-2000): 100 μg in 77.74 μL H2O (1 mM stock), stored at −20° C.
Compound dilution—All compounds were provided at 10 mM in 100% DMSO. In the first well, 2 μL of 10 mM compound was added to 78 μL of DMSO (1:40 dilution). In subsequent wells 3-fold dilution (total 10 dilutions) were performed.
1×ATX assay buffer was made up with a final concentration of 1 mg/mL fatty acid free-BSA using 2×ATX assay buffer, 10 mg/ml fatty acid free-BSA and ddH2O.
ATX protein was diluted with 1×ATX assay buffer to a concentration of 1.32 μg/mL (1.32×). 38 μL was added per well to the assay plate. The final concentration of ATX in the reaction as 1.0 μg/mL.
2 μL per well of compounds was transferred to provide the desired concentration. The plate was centrifuged, then incubated at room temperature for 30 minutes on the shaker.
FS-3 was diluted with 1×ATX assay buffer to a concentration of FS-3 of 10 μM (5×). Then, 10 μL was added per well to the assay plate. The final concentration of FS-3 in the reaction was 2 μM. The plate was centrifuged. The plate was kept shaking at room temperature for 2 hours. Because FS-3 substrate is light sensitive, plates were kept covered and protected from light.
Fluorescence was measured using SpectraMax M5 (excitation at 485 nm/emission at 538 nm, top read).

[1] = binned table, read-out: IC50 (μm)

Structure (SMILES) | pIC50 [1] | pIC50 (read-out: ATX IC50)
C[C@H]1CC[C@@H](Oc2ccc3c(CN4CCC(C(=O)O)CC4)cccc3c2C(F)(F)F)CC1 [Example 1, 1-((6-((cis-4-methylcyclohexyl)oxy)-5-(trifluoromethyl)naphthalen-1-yl)methyl)piperidine-4-carboxylic acid] | 5.30 to 6.30 | 
C[C@H]1CC[C@@H](Oc2ccc3c(CN4C5CCC4CC(C(=O)O)C5)cccc3c2C(F)(F)F)CC1 (stereo partly drawn) [Example 2, 8-((6-((cis-4-methylcyclohexyl)oxy)-5-(trifluoromethyl)naphthalen-1-yl)methyl)-8-azabicyclo[3.2.1]octane-3-carboxylic acid] | 5.30 to 6.30 | 
C[C@H]1CC[C@@H](Oc2ccc3c(CN4C5CCCC4CC(C(=O)O)C5)cccc3c2C(F)(F)F)CC1 (stereo partly drawn) [Example 3, 9-((6-((cis-4-methylcyclohexyl)oxy)-5-(trifluoromethyl)naphthalen-1-yl)methyl)-9-azabicyclo[3.3.1]nonane-3-carboxylic acid] | 5.30 to 6.30 | 
C[C@H]1CC[C@@H](Oc2ccc3c(CN4CCC[C@H](CC(=O)O)C4)cccc3c2C(F)(F)F)CC1 [Example 4, 2-((R)-1-((6-((cis-4-methylcyclohexyl)oxy)-5-(trifluoromethyl)naphthalen-1-yl)methyl)piperidin-3-yl)acetic acid] | > 6.30 | ≥ 6.60
C[C@H]1CC[C@@H](Oc2ccc3c(CNC4(C(=O)O)CCCCC4)cccc3c2C(F)(F)F)CC1 [Example 5, 1-(((6-((cis-4-methylcyclohexyl)oxy)-5-(trifluoromethyl)naphthalen-1-yl)methyl)amino)cyclohexanecarboxylic acid] | < 5.30 | 
C[C@H]1CC[C@@H](Oc2ccc3c(CNCC(=O)O)cccc3c2C(F)(F)F)CC1 [Example 6, 2-(((6-((cis-4-methylcyclohexyl)oxy)-5-(trifluoromethyl)naphthalen-1-yl)methyl)amino)acetic acid] | 5.30 to 6.30 | 
C[C@H]1CC[C@@H](Oc2ccc3c(CNCCC(=O)O)cccc3c2C(F)(F)F)CC1 [Example 7, 3-(((6-((cis-4-methylcyclohexyl)oxy)-5-(trifluoromethyl)naphthalen-1-yl)methyl)amino)propanoic acid] | > 6.30 | 
C[C@H]1CC[C@@H](Oc2ccc3c(CNCCCC(=O)O)cccc3c2C(F)(F)F)CC1 [Example 8, 4-(((6-((cis-4-methylcyclohexyl)oxy)-5-(trifluoromethyl)naphthalen-1-yl)methyl)amino)butanoic acid] | > 6.30 | 
C[C@H]1CC[C@@H](Oc2ccc3c(CNCCCCC(=O)O)cccc3c2C(F)(F)F)CC1 [Example 9, 5-(((6-((cis-4-methylcyclohexyl)oxy)-5-(trifluoromethyl)naphthalen-1-yl)methyl)amino)pentanoic acid] | 5.30 to 6.30 | 
C[C@H]1CC[C@@H](Oc2ccc3c(CNCCCCCC(=O)O)cccc3c2C(F)(F)F)CC1 [Example 10, 6-(((6-((cis-4-methylcyclohexyl)oxy)-5-(trifluoromethyl)naphthalen-1-yl)methyl)amino)hexanoic acid] | > 6.30 | ≥ 6.60
O=C(O)C1CCN(Cc2cccc3c(C(F)(F)F)c(O[C@H]4CC[C@@H](C(F)(F)F)CC4)ccc23)CC1 [Example 11, 1-((5-(trifluoromethyl)-6-((cis-4-(trifluoromethyl)cyclohexyl)oxy)naphthalen-1-yl)methyl)piperidine-4-carboxylic acid] | 5.30 to 6.30 | 
O=C(O)C1CC2CCCC(C1)N2Cc1cccc2c(C(F)(F)F)c(O[C@H]3CC[C@@H](C(F)(F)F)CC3)ccc12 (stereo partly drawn) [Example 13, 9-((5-(trifluoromethyl)-6-((cis-4-(trifluoromethyl)cyclohexyl)oxy)naphthalen-1-yl)methyl)-9-azabicyclo[3.3.1]nonane-3-carboxylic acid] | 5.30 to 6.30 | 
O=C(O)C[C@H]1CCCN(Cc2cccc3c(C(F)(F)F)c(O[C@H]4CC[C@@H](C(F)(F)F)CC4)ccc23)C1 [Example 14, 2-((R)-1-((5-(trifluoromethyl)-6-((cis-4-(trifluoromethyl)cyclohexyl)oxy)naphthalen-1-yl)methyl)piperidin-3-yl)acetic acid] | > 6.30 | ≥ 6.60
O=C(O)C1(NCc2cccc3c(C(F)(F)F)c(O[C@H]4CC[C@@H](C(F)(F)F)CC4)ccc23)CCCCC1 [Example 15, 1-(((5-(trifluoromethyl)-6-((cis-4-(trifluoromethyl)cyclohexyl)oxy)naphthalen-1-yl)methyl)amino)cyclohexanecarboxylic acid] | < 5.30 | 
O=C(O)CNCc1cccc2c(C(F)(F)F)c(O[C@H]3CC[C@@H](C(F)(F)F)CC3)ccc12 [Example 16, 2-(((5-(trifluoromethyl)-6-((cis-4-(trifluoromethyl)cyclohexyl)oxy)naphthalen-1-yl)methyl)amino)acetic acid] | 5.30 to 6.30 | 
O=C(O)CCNCc1cccc2c(C(F)(F)F)c(O[C@H]3CC[C@@H](C(F)(F)F)CC3)ccc12 [Example 17, 3-(((5-(trifluoromethyl)-6-((cis-4-(trifluoromethyl)cyclohexyl)oxy)naphthalen-1-yl)methyl)amino)propanoic acid] | 5.30 to 6.30 | 
O=C(O)CCCNCc1cccc2c(C(F)(F)F)c(O[C@H]3CC[C@@H](C(F)(F)F)CC3)ccc12 [Example 18, 4-(((5-(trifluoromethyl)-6-((cis-4-(trifluoromethyl)cyclohexyl)oxy)naphthalen-1-yl)methyl)amino)butanoic acid] | > 6.30 | 
O=C(O)CCCCNCc1cccc2c(C(F)(F)F)c(O[C@H]3CC[C@@H](C(F)(F)F)CC3)ccc12 [Example 19, 5-(((5-(trifluoromethyl)-6-((cis-4-(trifluoromethyl)cyclohexyl)oxy)naphthalen-1-yl)methyl)amino)pentanoic acid] | 5.30 to 6.30 | 
O=C(O)CCCCCNCc1cccc2c(C(F)(F)F)c(O[C@H]3CC[C@@H](C(F)(F)F)CC3)ccc12 [Example 20, 6-(((5-(trifluoromethyl)-6-((cis-4-(trifluoromethyl)cyclohexyl)oxy)naphthalen-1-yl)methyl)amino)hexanoic acid] | > 6.30 | ≥ 6.60
C[C@H]1CC[C@@H](Oc2ccc3cccc(CN4CCC(C(=O)O)CC4)c3c2C(F)(F)F)CC1 [Example 21, 1-((7-((cis-4-methylcyclohexyl)oxy)-8-(trifluoromethyl)naphthalen-1-yl)methyl)piperidine-4-carboxylic acid] | 5.30 to 6.30 | 
C[C@H]1CC[C@@H](Oc2ccc3cccc(CN4C5CCC4CC(C(=O)O)C5)c3c2C(F)(F)F)CC1 (stereo partly drawn) [Example 22, 8-((7-((cis-4-methylcyclohexyl)oxy)-8-(trifluoromethyl)naphthalen-1-yl)methyl)-8-azabicyclo[3.2.1]octane-3-carboxylic acid] | > 6.30 | ≥ 6.60
C[C@H]1CC[C@@H](Oc2ccc3cccc(CN4C5CCCC4CC(C(=O)O)C5)c3c2C(F)(F)F)CC1 (stereo partly drawn) [Example 23, 9-((7-((cis-4-methylcyclohexyl)oxy)-8-(trifluoromethyl)naphthalen-1-yl)methyl)-9-azabicyclo[3.3.1]nonane-3-carboxylic acid] | 5.30 to 6.30 | 
C[C@H]1CC[C@@H](Oc2ccc3cccc(CN4CCC[C@H](CC(=O)O)C4)c3c2C(F)(F)F)CC1 [Example 24, 2-((R)-1-((7-((cis-4-methylcyclohexyl)oxy)-8-(trifluoromethyl)naphthalen-1-yl)methyl)piperidin-3-yl)acetic acid] | 5.30 to 6.30 | 
O=C(O)C1CCN(Cc2cccc3ccc(O[C@H]4CC[C@@H](C(F)(F)F)CC4)c(C(F)(F)F)c23)CC1 [Example 25, 1-((8-(trifluoromethyl)-7-((cis-4-(trifluoromethyl)cyclohexyl)oxy)naphthalen-1-yl)methyl)piperidine-4-carboxylic acid] | 5.30 to 6.30 | 
O=C(O)C1CC2CCC(C1)N2Cc1cccc2ccc(O[C@H]3CC[C@@H](C(F)(F)F)CC3)c(C(F)(F)F)c12 (stereo partly drawn) [Example 26, 8-((8-(trifluoromethyl)-7-((cis-4-(trifluoromethyl)cyclohexyl)oxy)naphthalen-1-yl)methyl)-8-azabicyclo[3.2.1]octane-3-carboxylic acid] | 5.30 to 6.30 | 
O=C(O)C1CC2CCCC(C1)N2Cc1cccc2ccc(O[C@H]3CC[C@@H](C(F)(F)F)CC3)c(C(F)(F)F)c12 (stereo partly drawn) [Example 27, 9-((8-(trifluoromethyl)-7-((cis-4-(trifluoromethyl)cyclohexyl)oxy)naphthalen-1-yl)methyl)-9-azabicyclo[3.3.1]nonane-3-carboxylic acid] | 5.30 to 6.30 | 
